From US11655994B2, “Antimicrobial composition including an acyl lactylate and a glycol and methods of inhibiting microbial growth utilizing the same” (Kimberly-Clark Worldwide, Inc., priority 2017, dated 2023)

Experiment: Brookfield viscosity of acyl lactylates alone and 1:1 with glycols
Assay type: physicochemical
Conditions: Brookfield 95, 5 RPM, 25° C.; acyl lactylate alone
Description: An advantage of compositions including an acyl lactylate and a glycol is the reduction of viscosity that is present in acyl lactylates, which is rather high and increases difficulty in processing. […] Of course, it is expected that a lowering of viscosity of the acyl lactylates would be realized in ratios of acyl lactylates:glycols other than 1:1 as well.

Row | Compound | Viscosity
1 | CCCCCCCCCCCC(=O)OC(C)C(=O)OC(C)C(=O)[O-].[Na+] (stereo not drawn) [Sodium Lauroyl Lactylate] | 1,520,000 cP
2 | Sodium Caproyl/Lauroyl Lactylate | 1,192,000 cP
3 | Sodium Isostearoyl Lactylate | 1,080,000 cP
